# In ChEMBL document CHEMBL5120927, “LEGO-Lipophosphonoxins: A Novel Approach in Designing Membrane Targeting Antimicrobials” (J Med Chem, 2022):
# What was measured:
# [1] = system: Enterococcus faecalis; experiment: Antibacterial activity against Enterococcus faecalis ATCC 29212 = CCM 4224 assessed as inhibition of bacterial growth incubated for 24 hrs by microdilution assay; format: functional
# [2] = system: Staphylococcus aureus; experiment: Antibacterial activity against Staphylococcus aureus ATCC 29213 = CCM 4223 assessed as inhibition of bacterial growth incubated for 24 hrs by microdilution assay; format: functional
# [3] = system: Staphylococcus aureus; experiment: Antibacterial activity against Staphylococcus aureus ATCC 29213 = CCM 4223 assessed as inhibition of bacterial growth incubated for 24 hrs in presence of BSA by microdilution assay; format: functional
# [4] = system: Escherichia coli; experiment: Antibacterial activity against Escherichia coli ATCC 25922 = CCM 3954 assessed as inhibition of bacterial growth incubated for 24 hrs by microdilution assay; format: functional
# [5] = system: Escherichia coli; experiment: Antibacterial activity against Escherichia coli ATCC 25922 = CCM 3954 assessed as inhibition of bacterial growth incubated for 24 hrs in presence of BSA by microdilution assay; format: functional
# [6] = system: Pseudomonas aeruginosa; experiment: Antibacterial activity against Pseudomonas aeruginosa ATCC 27853 = CCM 3955 assessed as inhibition of bacterial growth incubated for 24 hrs by microdilution assay; format: functional
# [7] = Hemolytic activity in human RBC assessed as haemoglobin release measured after 3 hr; format: toxicity, cell-based, Erythrocyte; settings: red blood cells (erythrocytes)
# [8] = Gradient chromatographic hydrophobicity index of the compound at pH 3.7 by HPLC analysis; format: ADME
# [9] = system: Staphylococcus epidermidis; experiment: Antibacterial activity against Staphylococcus epidermidis CCM 7221 assessed as inhibition of bacterial growth incubated for 24 hrs by microdilution assay; format: functional
# [10] = system: Staphylococcus aureus; experiment: Antibacterial activity against methicillin resistant Staphylococcus aureus 4591/A assessed as reduction in microbial growth incubated for 24 hrs by microdilution assay; format: functional
# [11] = system: Escherichia coli; experiment: Antibacterial activity against multidrug-resistant Escherichia coli CE5556 expressing CTX-M-15 assessed as reduction in microbial growth incubated for 24 hrs by microdilution assay; format: functional
# [12] = system: Enterococcus faecium; experiment: Antibacterial activity against vancomycin resistant Enterococcus faecium 419/ANA assessed as reduction in microbial growth incubated for 24 hrs by microdilution assay; format: functional
# [13] = system: Pseudomonas aeruginosa; experiment: Antibacterial activity against multidrug-resistant Pseudomonas aeruginosa assessed as reduction in microbial growth incubated for 24 hrs by microdilution assay; format: functional
# [14] = Cytotoxicity against human HepG2 cells assessed as reduction in cell viability; format: toxicity, cell-based
Structure (SMILES),MIC [1] [µg/mL],MIC [2] [µg/mL],MIC [3] [µg/mL],MIC [4] [µg/mL],MIC [5] [µg/mL],MIC [6] [µg/mL],HC50 at 3 h [7] [µg/mL],CHI [8],MIC [9] [µg/mL],MIC [10] [µg/mL],MIC [11] [µg/mL],MIC [12] [µg/mL],MIC [13] [µg/mL],CC50 [14] [µM]
CCC/C=C\CCOP(=O)(CCN(CCCN)CCCN)OCCCCCCOP(=O)(CCN(CCCN)CCCN)OCC/C=C\CCC.Cl.Cl.Cl.Cl.Cl.Cl (stereo not drawn),> 128,4,16,16,32,128,> 200,29.6,1,4,32,> 128,128,> 99
Cl.Cl.Cl.Cl.Cl.Cl.NCCCN(CCCN)CCP(=O)(OCCCOP(=O)(CCN(CCCN)CCCN)OCCC12CC3CC(CC(C3)C1)C2)OCCC12CC3CC(CC(C3)C1)C2 (stereo not drawn),2,1,2,2,1,16,196,36.9,2,1,2,32,4,93.6
CCCCCCOP(=O)(CCN(CCCN)CCCN)OCCCCCCCCOP(=O)(CCN(CCCN)CCCN)OCCCCCC.Cl.Cl.Cl.Cl.Cl.Cl (stereo not drawn),16,1,2,1,8,16,> 500,31.4,0.5,2,8,> 128,64,> 99
CCC/C=C\CCOP(=O)(CCN(CCCN)CCCN)OCCCOP(=O)(CCN(CCCN)CCCN)OCC/C=C\CCC.Cl.Cl.Cl.Cl.Cl.Cl (stereo not drawn),> 128,64,64,> 128,> 128,128,> 200,23.4,8,32,> 128,> 128,128,> 99
CCCCOP(=O)(CCN(CCN)CCN)OCCCCCCCCCCOP(=O)(CCN(CCN)CCN)OCCCC.Cl.Cl.Cl.Cl.Cl.Cl (stereo not drawn),64,64,> 128,64,> 128,64,55,34.2,64,128,> 128,128,128,> 99
Cl.Cl.Cl.Cl.Cl.Cl.NCCCN(CCCN)CCP(=O)(OCCCOP(=O)(CCN(CCCN)CCCN)OCC12CC3CC(CC(C3)C1)C2)OCC12CC3CC(CC(C3)C1)C2 (stereo not drawn),8,4,4,8,8,64,> 500,32.6,2,4,16,64,16,> 99
CC(C)COP(=O)(CCN(CCCN)CCCN)OCCCCCCCCCCCCOP(=O)(CCN(CCCN)CCCN)OCC(C)C.Cl.Cl.Cl.Cl.Cl.Cl (stereo not drawn),32,4,16,128,> 128,32,170,31.4,1,4,> 128,128,16,56.2
CCCC/C=C\CCOP(=O)(CCN(CCCN)CCCN)OCCCCCCOP(=O)(CCN(CCCN)CCCN)OCC/C=C\CCCC.Cl.Cl.Cl.Cl.Cl.Cl (stereo not drawn),16,1,4,2,4,16,34.8,33.8,0.5,1,2,64,16,92.5
CCCCC/C=C\CCOP(=O)(CCN(CCCN)CCCN)OCCCCCCOP(=O)(CCN(CCCN)CCCN)OCC/C=C\CCCCC.Cl.Cl.Cl.Cl.Cl.Cl (stereo not drawn),2,0.5,2,1,0.5,2,262,37.5,0.5,1,1,8,2,30.8
CCCCC/C=C\CCOP(=O)(CCN(CCCN)CCCN)OCCCCCOP(=O)(CCN(CCCN)CCCN)OCC/C=C\CCCCC.Cl.Cl.Cl.Cl.Cl.Cl (stereo not drawn),4,1,2,2,1,4,> 500,37.2,1,1,1,32,4,97.8
Cl.Cl.Cl.Cl.Cl.Cl.NCCCN(CCCN)CCP(=O)(OCCCCCOP(=O)(CCN(CCCN)CCCN)OCC12CC3CC(CC(C3)C1)C2)OCC12CC3CC(CC(C3)C1)C2 (stereo not drawn),4,2,2,2,2,32,415,34.1,2,2,4,64,8,> 99
CCCCCCOP(=O)(CCN(CCCN)CCCN)OCCCCCCCCCCOP(=O)(CCN(CCCN)CCCN)OCCCCCC.Cl.Cl.Cl.Cl.Cl.Cl (stereo not drawn),4,0.5,3,0.5,1,4,743,34.8,0.5,1,8,32,8,17.5
